Measurements reported in US11034650B2, “Compounds useful for treating a Mannheimia haemolytica or Histophilus somni infection” (Intervet Inc., priority 2016, dated 2021).
≈ marks a conversion by molar mass, not a printed value.

Assays:
Assay type in all cases: cell-based
[1] = test system: Mannheimia haemolytica MH 6357 (M7/2, reference strain, cattle infection strain); test: MIC, broth-microdilution (CLSI VET01-A4), strain MH 6357; conditions: Mannheimia haemolytica strain MH 6357, broth-microdilution; unit assumed
Method in brief: (§1)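 Read-out is unaided visual inspection for turbidity. The minimum inhibitory concentration is the lowest tested level without detectable growth across a two-fold compound series.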

[2] = test system: Mannheimia haemolytica MH 6374 (ATCC 33396, reference strain); test: MIC, broth-microdilution (CLSI VET01-A4), strain MH 6374; conditions: Mannheimia haemolytica strain MH 6374, broth-microdilution; unit assumed
Method in brief: as §1

[3] = test system: Mannheimia haemolytica MH 10720 (154, BRD field isolate); test: MIC, broth-microdilution (CLSI VET01-A4), strain MH 10720; conditions: Mannheimia haemolytica strain MH 10720, broth-microdilution; unit assumed
Method in brief: as §1

[4] = test system: Mannheimia haemolytica MH 12587 (1071, BRD field isolate, macrolide-resistance: erm+, E+); test: MIC, broth-microdilution (CLSI VET01-A4), strain MH 12587; conditions: Mannheimia haemolytica strain MH 12587, broth-microdilution; unit assumed
Method in brief: as §1

[5] = test system: Mannheimia haemolytica MH 13065 (XB0446-6003.9, BRD field isolate); test: MIC, broth-microdilution (CLSI VET01-A4), strain MH 13065; conditions: Mannheimia haemolytica strain MH 13065, broth-microdilution; unit assumed
Method in brief: as §1

[6] = test system: Mannheimia haemolytica MH 13093 (XB0472-6014.1, BRD field isolate); test: MIC, broth-microdilution (CLSI VET01-A4), strain MH 13093; conditions: Mannheimia haemolytica strain MH 13093, broth-microdilution; unit assumed
Method in brief: as §1

[7] = test system: Pasteurella multocida PM 6267 (P 2225 (L386), reference strain, mouse infection strain); test: MIC, broth-microdilution (CLSI VET01-A4), strain PM 6267; conditions: Pasteurella multocida strain PM 6267, broth-microdilution; unit assumed
Method in brief: as §1

[8] = test system: Pasteurella multocida PM 6391 (ATCC 43137, reference strain); test: MIC, broth-microdilution (CLSI VET01-A4), strain PM 6391; conditions: Pasteurella multocida strain PM 6391, broth-microdilution; unit assumed
Method in brief: as §1

[9] = test system: Pasteurella multocida PM 10775 (080130003051, BRD field isolate); test: MIC, broth-microdilution (CLSI VET01-A4), strain PM 10775; conditions: Pasteurella multocida strain PM 10775, broth-microdilution; unit assumed
Method in brief: as §1

[10] = test system: Pasteurella multocida PM 12080 (IV102277-0093, BRD field isolate); test: MIC, broth-microdilution (CLSI VET01-A4), strain PM 12080; conditions: Pasteurella multocida strain PM 12080, broth-microdilution; unit assumed
Method in brief: as §1

CSC(C)(C)[C@H](NC(=O)c1ccc(C#Cc2ccc(CNCc3ccncc3)cc2)cc1)C(=O)NO [Compound 241]
MIC MH 6357 [1]: 0.4 µg/mL (≈ 0.796 µM)
MIC MH 6374 [2]: 0.8 µg/mL (≈ 1.59 µM)
MIC MH 10720 [3]: ≤ 0.1 µg/mL
MIC MH 12587 [4]: 0.8 µg/mL (≈ 1.59 µM)
MIC MH 13065 [5]: 0.4 µg/mL (≈ 0.796 µM)
MIC MH 13093 [6]: 0.4 µg/mL (≈ 0.796 µM)
MIC PM 6267 [7]: ≤ 0.1 µg/mL
MIC PM 6391 [8]: ≤ 0.1 µg/mL
MIC PM 10775 [9]: ≤ 0.1 µg/mL
MIC PM 12080 [10]: ≤ 0.1 µg/mL

CC(C)(O)[C@H](NC(=O)c1ccc(C#Cc2ccc(CNCc3nccs3)nc2)cc1)C(=O)NO [Compound 362]
MIC MH 6357 [1]: 3.1 µg/mL (≈ 6.46 µM)
MIC MH 6374 [2]: 0.8 µg/mL (≈ 1.67 µM)
MIC MH 10720 [3]: 0.4 µg/mL (≈ 0.834 µM)
MIC MH 12587 [4]: 3.1 µg/mL (≈ 6.46 µM)
MIC MH 13065 [5]: 1.6 µg/mL (≈ 3.34 µM)
MIC MH 13093 [6]: 3.1 µg/mL (≈ 6.46 µM)
MIC PM 6267 [7]: 0.2 µg/mL (≈ 0.417 µM)
MIC PM 6391 [8]: 0.4 µg/mL (≈ 0.834 µM)
MIC PM 10775 [9]: ≤ 0.1 µg/mL
MIC PM 12080 [10]: 0.2 µg/mL (≈ 0.417 µM)

CC(C)[C@H](NC(=O)c1ccc(C#Cc2ccc(CNCc3ncc[nH]3)cc2)cc1)C(=O)NO [Compound 173]
MIC MH 6357 [1]: 3.1 µg/mL (≈ 6.96 µM)
MIC MH 6374 [2]: 3.1 µg/mL (≈ 6.96 µM)
MIC MH 10720 [3]: 0.8 µg/mL (≈ 1.8 µM)
MIC MH 12587 [4]: 6.3 µg/mL (≈ 14.1 µM)
MIC MH 13065 [5]: 6.3 µg/mL (≈ 14.1 µM)
MIC MH 13093 [6]: 6.3 µg/mL (≈ 14.1 µM)
MIC PM 6267 [7]: ≤ 0.1 µg/mL
MIC PM 6391 [8]: 0.8 µg/mL (≈ 1.8 µM)
MIC PM 10775 [9]: ≤ 0.1 µg/mL
MIC PM 12080 [10]: 0.4 µg/mL (≈ 0.898 µM)

COc1ccc(CNCc2ccc(C#Cc3ccc(C(=O)N[C@H](C(=O)NO)C(C)(C)SC)cc3)cn2)cc1 [Compound 340]
MIC MH 6357 [1]: 0.8 µg/mL (≈ 1.5 µM)
MIC MH 6374 [2]: 1.6 µg/mL (≈ 3 µM)
MIC MH 10720 [3]: 0.4 µg/mL (≈ 0.751 µM)
MIC MH 12587 [4]: 3.1 µg/mL (≈ 5.82 µM)
MIC MH 13065 [5]: 1.6 µg/mL (≈ 3 µM)
MIC MH 13093 [6]: 1.6 µg/mL (≈ 3 µM)
MIC PM 6267 [7]: 1.6 µg/mL (≈ 3 µM)
MIC PM 6391 [8]: 1.6 µg/mL (≈ 3 µM)
MIC PM 10775 [9]: 0.2 µg/mL (≈ 0.375 µM)
MIC PM 12080 [10]: 0.8 µg/mL (≈ 1.5 µM)

CC(C)([C@H](NC(=O)c1ccc(C#Cc2ccc(CNCc3ccccn3)nc2)cc1)C(=O)NO)S(C)(=O)=O [Compound 353]
MIC MH 6357 [1]: 3.1 µg/mL (≈ 5.79 µM)
MIC MH 6374 [2]: 6.3 µg/mL (≈ 11.8 µM)
MIC MH 10720 [3]: 0.8 µg/mL (≈ 1.49 µM)
MIC MH 12587 [4]: 12.5 µg/mL (≈ 23.3 µM)
MIC MH 13065 [5]: 6.3 µg/mL (≈ 11.8 µM)
MIC MH 13093 [6]: 6.3 µg/mL (≈ 11.8 µM)
MIC PM 6267 [7]: 3.1 µg/mL (≈ 5.79 µM)
MIC PM 6391 [8]: 1.6 µg/mL (≈ 2.99 µM)
MIC PM 10775 [9]: 0.4 µg/mL (≈ 0.747 µM)
MIC PM 12080 [10]: 0.8 µg/mL (≈ 1.49 µM)

CSC(C)(C)[C@H](NC(=O)c1ccc(C#Cc2ccc(CNCc3ccccn3)cc2)cc1)C(=O)NO [Compound 249]
MIC MH 6357 [1]: 0.8 µg/mL (≈ 1.59 µM)
MIC MH 6374 [2]: 1.6 µg/mL (≈ 3.18 µM)
MIC MH 10720 [3]: 0.2 µg/mL (≈ 0.398 µM)
MIC MH 12587 [4]: 1.6 µg/mL (≈ 3.18 µM)
MIC MH 13065 [5]: 0.8 µg/mL (≈ 1.59 µM)
MIC MH 13093 [6]: 0.8 µg/mL (≈ 1.59 µM)
MIC PM 6267 [7]: 0.2 µg/mL (≈ 0.398 µM)
MIC PM 6391 [8]: 0.8 µg/mL (≈ 1.59 µM)
MIC PM 10775 [9]: ≤ 0.1 µg/mL
MIC PM 12080 [10]: 0.4 µg/mL (≈ 0.796 µM)

CSC(C)(C)[C@H](NC(=O)c1ccc(C#Cc2ccc(CNCc3ccnc(Cl)c3)cc2)cc1)C(=O)NO [Compound 248]
MIC MH 6357 [1]: 1.6 µg/mL (≈ 2.98 µM)
MIC MH 6374 [2]: 1.6 µg/mL (≈ 2.98 µM)
MIC MH 10720 [3]: 0.4 µg/mL (≈ 0.745 µM)
MIC MH 12587 [4]: 1.6 µg/mL (≈ 2.98 µM)
MIC MH 13065 [5]: 1.6 µg/mL (≈ 2.98 µM)
MIC MH 13093 [6]: 1.6 µg/mL (≈ 2.98 µM)
MIC PM 6267 [7]: 0.4 µg/mL (≈ 0.745 µM)
MIC PM 6391 [8]: 0.8 µg/mL (≈ 1.49 µM)
MIC PM 10775 [9]: 0.2 µg/mL (≈ 0.372 µM)
MIC PM 12080 [10]: 0.8 µg/mL (≈ 1.49 µM)

CSC(C)(C)[C@H](NC(=O)c1ccc(C#Cc2ccc(CNCC(F)(F)F)s2)cc1)C(=O)NO [Compound 309]
MIC MH 6357 [1]: 0.8 µg/mL (≈ 1.6 µM)
MIC MH 6374 [2]: 0.8 µg/mL (≈ 1.6 µM)
MIC MH 10720 [3]: ≤ 0.1 µg/mL
MIC MH 12587 [4]: 1.6 µg/mL (≈ 3.2 µM)
MIC MH 13065 [5]: 0.8 µg/mL (≈ 1.6 µM)
MIC MH 13093 [6]: 1.6 µg/mL (≈ 3.2 µM)
MIC PM 6267 [7]: 1.6 µg/mL (≈ 3.2 µM)
MIC PM 6391 [8]: 0.4 µg/mL (≈ 0.801 µM)
MIC PM 10775 [9]: ≤ 0.1 µg/mL
MIC PM 12080 [10]: 0.4 µg/mL (≈ 0.801 µM)

CC(C)([C@H](NC(=O)c1ccc(C#Cc2ccc(CNCc3cccs3)cc2)cc1)C(=O)NO)S(C)(=O)=O [Compound 271]
MIC MH 6357 [1]: 0.4 µg/mL (≈ 0.741 µM)
MIC MH 6374 [2]: 0.2 µg/mL (≈ 0.371 µM)
MIC MH 10720 [3]: ≤ 0.1 µg/mL
MIC MH 12587 [4]: 0.8 µg/mL (≈ 1.48 µM)
MIC MH 13065 [5]: 0.2 µg/mL (≈ 0.371 µM)
MIC MH 13093 [6]: 0.4 µg/mL (≈ 0.741 µM)
MIC PM 6267 [7]: ≤ 0.1 µg/mL
MIC PM 6391 [8]: ≤ 0.1 µg/mL
MIC PM 10775 [9]: ≤ 0.1 µg/mL
MIC PM 12080 [10]: ≤ 0.1 µg/mL
